Consider 50 compounds from ChEMBL document CHEMBL4219156, “Synthesis, evaluation and CoMFA/CoMSIA study of nitrofuranyl methyl N-heterocycles as novel antitubercular agents” (2018).

In brackets after ≈: the same amount, converted by molar mass.

The subject of the assay is Mycobacterium tuberculosis. The experiment in a line: Antitubercular activity against Mycobacterium tuberculosis H37Rv ATCC 27294 after 7 days by MABA. Set-up: -logMIC: unit not given here. The class given is functional. Particulars: for MIC: Mycobacterium tuberculosis, H37Rv ATCC 27294, 168 h. A general note: Alamar Blue is a resazurin reagent that responds to reducing activity.

Usually MIC stands for the lowest concentration that inhibits growth of the organism. On to `CC(C)(C)c1ccc(N2CCN(Cc3ccc([N+](=O)[O-])o3)CC2)cc1`, for which the “-logMIC” value came out at 4.796 and the lowest concentration to inhibit growth (MIC) was 0.016 µg/mL (≈ 0.0466 µM). As for `CCC(C)C(=O)N1CCN(Cc2ccc([N+](=O)[O-])o2)CC1` (stereo not drawn), the “-logMIC” value is given as 3.303 and the MIC was found to be 3.09 µg/mL (≈ 10.5 µM).

In the case of `CC(C)(C)C(=O)N1CCN(Cc2ccc([N+](=O)[O-])o2)CC1`, the “-logMIC” value worked out at 3.023 and inhibition of growth (MIC) required 0.948 µg/mL (≈ 3.21 µM). On to `O=C(CN1CCN(Cc2ccc([N+](=O)[O-])o2)CC1)Nc1ccccc1`, for which the “-logMIC” value worked out at 1.99 and 10.2 µg/mL (≈ 29.7 µM) was the least that counted as inhibitory (MIC). `O=C(C1CCCCC1)N1CCC2(CCN(Cc3ccc([N+](=O)[O-])o3)CC2)CC1` displayed an MIC of 3.87 µg/mL (≈ 9.93 µM).

Regarding `COc1ccc2c(c1)CN(Cc1ccc([N+](=O)[O-])o1)CC2`, the “-logMIC” value is 3.918 and the MIC stood at 0.121 µg/mL (≈ 0.42 µM).

Turning to `COc1ccc(S(=O)(=O)N2CC3CN(Cc4ccc([N+](=O)[O-])o4)CC3C2)cc1` (stereo not drawn), inhibition of growth (MIC) required 0.405 µg/mL (≈ 0.994 µM). As to `O=[N+]([O-])c1ccc(CN2Cc3ccc(F)cc3C2)o1`, the “-logMIC” value was 3.31 and the lowest concentration to inhibit growth (MIC) was 0.49 µg/mL (≈ 1.87 µM).

For `CC(=O)N1CCN(Cc2ccc([N+](=O)[O-])o2)CC1`, the “-logMIC” value is 1.922 and 12 µg/mL (≈ 47.3 µM) was the least that counted as inhibitory (MIC). For the compound `O=C(C1CCCCC1)N1CCN(Cc2ccc([N+](=O)[O-])o2)CC1`, the “-logMIC” value amounted to 3.621 and the MIC came out at 0.239 µg/mL (≈ 0.744 µM). With `O=[N+]([O-])c1ccc(S(=O)(=O)N2CC3CN(Cc4ccc([N+](=O)[O-])o4)CC3C2)cc1` (stereo not drawn), inhibition of growth (MIC) required 0.235 µg/mL (≈ 0.556 µM).

On to `CC(C)CC(=O)N1CCC2(CCN(Cc3ccc([N+](=O)[O-])o3)CC2)CC1`, for which the MIC is 2.41 µg/mL (≈ 6.63 µM). For the compound `N#Cc1ccc2c(c1)CN(Cc1ccc([N+](=O)[O-])o1)CC2`, the “-logMIC” value is reported as 3.988 and 0.103 µg/mL (≈ 0.364 µM) was the least that counted as inhibitory (MIC). As for `CC(C)(C)OC(=O)CN1CCN(Cc2ccc([N+](=O)[O-])o2)CC1`, the “-logMIC” value came to 2.514 and the MIC came to 3.06 µg/mL (≈ 9.4 µM). As to `CC(C)(C)c1cccc(N2CCC3(CCN(Cc4ccc([N+](=O)[O-])o4)CC3)CC2)c1`, the “-logMIC” value was more than 4.796 and the MIC is less than 0.016 µg/mL. For `O=C(c1ccccc1)N1CCN(Cc2ccc([N+](=O)[O-])o2)CC1`, the “-logMIC” value stood at 2.733 and the MIC is 1.85 µg/mL (≈ 5.86 µM). `COc1ccc(CON=C2CCN(Cc3ccc([N+](=O)[O-])o3)CC2)cc1`: the “-logMIC” value amounted to 4.293 and 0.051 µg/mL (≈ 0.142 µM) was the least that counted as inhibitory (MIC). Regarding `CN(C)C(=O)CN1CCN(Cc2ccc([N+](=O)[O-])o2)CC1`, the “-logMIC” value stood at 1.516 and the MIC was 30.5 µg/mL (≈ 103 µM).

For the compound `CC(=O)N1CCC2(CCN(Cc3ccc([N+](=O)[O-])o3)CC2)CC1`, the lowest concentration to inhibit growth (MIC) was 32 µg/mL (≈ 99.6 µM). Take `O=[N+]([O-])c1ccc(CN2CCc3ccc(Cl)cc3C2)o1`: the “-logMIC” value came out at 3.962 and inhibition of growth (MIC) required 0.109 µg/mL (≈ 0.372 µM). Consider `O=C(c1ccc(F)cc1)N1CCN(Cc2ccc([N+](=O)[O-])o2)CC1`, for which the “-logMIC” value stood at 2.779 and it took 1.66 µg/mL (≈ 4.99 µM) to inhibit growth (MIC).

On to `O=[N+]([O-])c1ccc(CN2CC3CN(S(=O)(=O)c4ccc(C(F)(F)F)cc4)CC3C2)o1` (stereo not drawn), for which it took 0.123 µg/mL (≈ 0.276 µM) to inhibit growth (MIC). On to `CNc1ccc(C(=O)N2CCN(Cc3ccc([N+](=O)[O-])o3)CC2)cc1`, for which the “-logMIC” value is 3.315 and the minimal inhibitory concentration (MIC) is 0.484 µg/mL (≈ 1.41 µM). Turning to `CCON=C1CCN(Cc2ccc([N+](=O)[O-])o2)CC1`, the “-logMIC” value came out at 3.029 and 0.935 µg/mL (≈ 3.5 µM) was the least that counted as inhibitory (MIC). Regarding `COc1ccc(C(=O)N2CCN(Cc3ccc([N+](=O)[O-])o3)CC2)cc1`, the “-logMIC” value came to 3.408 and the MIC was found to be 0.391 µg/mL (≈ 1.13 µM). On to `CC(C)CC(=O)N1CCN(Cc2ccc([N+](=O)[O-])o2)CC1`, for which the “-logMIC” value is 2.51 and the MIC came out at 0.498 µg/mL (≈ 1.69 µM). Compound `CC(=O)CCN1CC2CN(Cc3ccc([N+](=O)[O-])o3)CC2C1` (stereo not drawn) showed an MIC of 32 µg/mL (≈ 104 µM). With `CC(C)(C)C(=O)N1CC2CN(Cc3ccc([N+](=O)[O-])o3)CC2C1` (stereo not drawn), the MIC is 1.55 µg/mL (≈ 4.81 µM). Take `O=[N+]([O-])c1ccc(CN2CCC(c3ccc(C(F)(F)F)cc3)CC2)o1`: the “-logMIC” value was 2.609 and the MIC came out at 2.46 µg/mL (≈ 6.94 µM). In the case of `O=[N+]([O-])c1ccc(CN2Cc3ccccc3C2)o1`, the “-logMIC” value is recorded as 2.749 and the MIC stood at 1.78 µg/mL (≈ 7.3 µM). Take `O=C(CN1CCN(Cc2ccc([N+](=O)[O-])o2)CC1)Oc1ccccc1`: the “-logMIC” value turned out to be 3.325 and the lowest concentration to inhibit growth (MIC) was 0.473 µg/mL (≈ 1.37 µM). `O=[N+]([O-])c1ccc(CN2CCc3ccc(Br)cc3C2)o1`: the “-logMIC” value came out at 4.206 and the lowest concentration to inhibit growth (MIC) was 0.062 µg/mL (≈ 0.184 µM). `O=C(C1CCCCC1)N1CC2CN(Cc3ccc([N+](=O)[O-])o3)CC2C1` (stereo not drawn) registered an MIC of 7.68 µg/mL (≈ 22.1 µM). On to `CC(C)(C)c1ccc(S(=O)(=O)N2CC3CN(Cc4ccc([N+](=O)[O-])o4)CC3C2)cc1` (stereo not drawn), for which inhibition of growth (MIC) required 0.126 µg/mL (≈ 0.291 µM).

Consider `O=[N+]([O-])c1ccc(CN2CCC3(CC2)CCN(S(=O)(=O)c2ccc(Cl)cc2)CC3)o1`, for which the “-logMIC” value came to 4.51 and inhibition of growth (MIC) required 0.031 µg/mL (≈ 0.0683 µM). For `O=[N+]([O-])c1ccc(CN2CCC(c3ccc(Br)cc3)CC2)o1`, in that order: 3.31 and 0.49 µg/mL (≈ 1.34 µM). For `O=[N+]([O-])c1ccc(CN2CCC(c3ccc(F)cc3)CC2)o1`, the “-logMIC” value is 3.337 and the MIC worked out at 0.46 µg/mL (≈ 1.51 µM). As to `CC(=O)CN1CCN(Cc2ccc([N+](=O)[O-])o2)CC1`, the “-logMIC” value is given as 2.117 and the MIC was determined as 7.63 µg/mL (≈ 28.6 µM). For `O=[N+]([O-])c1ccc(CN2CCC(=NOCc3ccc(C(F)(F)F)cc3)CC2)o1`, in that order: 3.673 and 0.212 µg/mL (≈ 0.534 µM).

Take `CCOC(=O)CN1CCN(Cc2ccc([N+](=O)[O-])o2)CC1`: the “-logMIC” value is 2.414 and 3.85 µg/mL (≈ 13 µM) was the least that counted as inhibitory (MIC). Regarding `O=[N+]([O-])c1ccc(CN2CCC(=NOCc3ccccc3)CC2)o1`, the “-logMIC” value is on record as 3.608 and the MIC was determined as 0.247 µg/mL (≈ 0.75 µM).

Turning to `COc1ccc(C2CCN(Cc3ccc([N+](=O)[O-])o3)CC2)cc1`, the “-logMIC” value amounted to 3.4 and inhibition of growth (MIC) required 0.398 µg/mL (≈ 1.26 µM). On to `CON=C1CCN(Cc2ccc([N+](=O)[O-])o2)CC1`, for which the “-logMIC” value is 2.701 and the MIC was 1.99 µg/mL (≈ 7.85 µM).

In the case of `O=[N+]([O-])c1ccc(CN2CCNCC2)o1`, the “-logMIC” value is reported as 3.616 and 0.242 µg/mL (≈ 1.15 µM) was the least that counted as inhibitory (MIC). For `CC(C)(C)c1ccc(N2CCC3(CCN(Cc4ccc([N+](=O)[O-])o4)CC3)CC2)cc1`, in that order: more than 4.796 and less than 0.016 µg/mL.

For the compound `O=[N+]([O-])c1ccc(CN2CCC(c3ccc(OC(F)(F)F)cc3)CC2)o1`, the “-logMIC” value is given as 3.303 and inhibition of growth (MIC) required 0.497 µg/mL (≈ 1.34 µM). With `O=[N+]([O-])c1ccc(CON=C2CCN(Cc3ccc([N+](=O)[O-])o3)CC2)cc1`, the “-logMIC” value was determined as 3.742 and the MIC is 0.181 µg/mL (≈ 0.484 µM). On to `N#Cc1ccc2c(c1)CN(Cc1ccc([N+](=O)[O-])o1)C2`, for which the “-logMIC” value was found to be 3.766 and it took 0.171 µg/mL (≈ 0.635 µM) to inhibit growth (MIC). Turning to `NNC(=O)c1ccncc1` [ISONIAZID], 0.038 µg/mL (≈ 0.277 µM) was the least that counted as inhibitory (MIC). Compound `CO[C@H]1/C=C/O[C@@]2(C)Oc3c(C)c(O)c4c(O)c(c(/C=N/N5CCN(C)CC5)c(O)c4c3C2=O)NC(=O)/C(C)=C\C=C\[C@H](C)[C@H](O)[C@@H](C)[C@@H](O)[C@@H](C)[C@H](OC(C)=O)[C@@H]1C` [RIFAMPIN] displayed a minimum inhibitory concentration (MIC) of 0.127 µg/mL (≈ 0.154 µM).
